Measurements: patent US12070483B2, “Compositions and methods for treatment of acute lung injury” (THE TRUSTEES OF THE UNIVERSITY OF PENNSYLVANIA, priority 2018, dated 2024)

Tests used:
[1] = test system: ROS production in lung; experiment: Lung ROS production (DFF-DA fluorescence) after IT LPS; format: in vivo, mouse; details: PIP-2 with IT LPS 5 μg/g; 6, 12 and 24 h
Experimental: FIGS. 9A and 9B: PIP-2 inhibits the increased lung aiPLA2 activity and increased ROS generation after LPS administration. LPS (5 μg/g body weight) was administered by intratracheal (IT) instillation along with liposomes alone (labeled as LPS) or with PIP-2 in liposomes (labeled as +PIP-2). Control was liposomes alone without LPS (labeled as control). Mice were sacrificed at 6, 12, or 24 h after LPS and lungs were perfused in situ for 15 min with saline solution containing the fluorophore difluorofluoroscein diacetate (DFF-DA). Lungs then were homogenized and assayed for: FIG. 9A: aiPLA2 activity; FIG. 9B: fluorescence of the lung homogenate as an index of ROS production. Results are mean±SE for N=3 for A and N=4 for B. *P<0.05 vs. Control and +PIP-2 at the same time point; ΔP<0.05 vs. corresponding value at 6 h.
To determine lung ROS production after LPS treatment, intact mice were treated with LPS (5 μg/g)±PIP-2 (2 μg/g). Mice were anesthesized at 6, 12, or 24 h after treatment with LPS and lungs in situ were cleared of blood and then perfused for […] with saline solution containing the fluorophore DFF-DA that is hydrolyzed intracellularly to DFF. Lungs were then homogenized, and fluorescence of the homogenate was measured at Ex 495 nm, Em 525 nm. Lung fluorescence was expressed as AFU per minute of perfusion with normalization to the mouse body wt.

[2] = target: T1, aiPLA2 activity (Homo sapiens, UniProt P30041); experiment: Inhibitory activity of PIP-2 after storage as dry powder at room temp.; format: biochemical; details: for aiPLA2 Activity: PIP-2 stored as dry powder at room temp.
T1 sequence (P30041 1-224): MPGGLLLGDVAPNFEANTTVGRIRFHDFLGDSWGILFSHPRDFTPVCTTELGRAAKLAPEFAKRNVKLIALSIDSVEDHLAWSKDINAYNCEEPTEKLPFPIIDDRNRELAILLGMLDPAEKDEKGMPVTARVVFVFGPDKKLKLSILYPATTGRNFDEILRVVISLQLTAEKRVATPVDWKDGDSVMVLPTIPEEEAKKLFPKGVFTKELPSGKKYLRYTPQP
Experimental: aiPLA2 activity was measured at intervals to determine how long the peptide could maintain its efficacy as an inhibitor of aiPLA2 activity. The peptide was stable for the 4 months of observation.

[3] = target: T2, Prdx6 (Mus musculus, UniProt O08709); details: PIP-2 2 μg/g in liposomes, for at least 24 h; shown previously; cited from earlier work
T2 construct: Lungs were harvested at intervals between 4 and 72 h after the PIP-2 administration, homogenized, and analyzed for Prdx6-PLA2 activity; from tissue; host or cells: mouse lung homogenate (wild type mice)
T2 sequence (O08709 1-224): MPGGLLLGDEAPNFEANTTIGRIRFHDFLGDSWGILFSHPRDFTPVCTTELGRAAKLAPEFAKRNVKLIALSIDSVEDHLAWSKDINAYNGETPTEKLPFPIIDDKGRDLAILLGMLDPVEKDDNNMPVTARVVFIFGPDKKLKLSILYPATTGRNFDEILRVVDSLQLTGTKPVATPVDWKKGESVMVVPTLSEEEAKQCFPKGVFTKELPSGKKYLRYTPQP

[4] = test system: mice, high dose IT LPS; experiment: High dose intratracheal LPS (15 μg/g): survival and lung injury of survivors
Experimental: LPS (15 mg/g body wt) was given to all mice either by: FIG. 7A: intratracheal (IT) or FIG. 7B: intraperitoneal (IP) injection. PIP-2 in liposomes or placebo (liposomes alone) was administered intravenously (IV) 12 h after LPS (this is treatment time zero) and then at 12 or 24 h intervals for a total of 5 doses as indicated by the arrows. FIG. 7A: PIP-2 at 2 μg/g body wt; N=14 for each group. FIG. 7B: PIP-2 at 2 or 20 μg/g body wt.; Placebo group, n=8; PIP-2 2 mg group, n=7; PIP-2 20 mg group, n=10.
Anesthesized mice were administered LPS (either 5 or 15 μgig body weight) in 20 μl saline that was instilled into the lung through an endotracheal catheter placed at the level of the tracheal carina. […] PIP-2 in liposomes was suspended in 20 μl saline for IV or IT injection. For studies to evaluate the effect of PIP-2 at zero time, LPS administration was followed by liposomes±PIP-2 also given by IT instillation. For studies to evaluate the effect of PIP-2 administered at later times after LPS, the liposomes±PIP-2 were given by injection into a retinal artery. This shift in route of administration was used to minimize damage to the mouse trachea that could occur with repeated tracheostomy and lead to untoward effects on the lung. […] We gave the second dose of PIP-2 at 12 h to be certain of maximal coverage and then went to every 24 h for PIP-2 administration. For the model of sepsis, LPS (15 μg/g body wt.) in 20 μl saline was injected intraperitoneally and mice were treated with IV PIP-2 at either 2 or 20 μg/g body wt; note that the initial dose of PIP-2 for this sepsis model was IV, not IT. We used the same times of PIP-2 administration in the sepsis model as were used for the IT LPS model. After recovery from anesthesia, all mice were maintained in the vivarium with access ad lib to food and water.
At the end of each experiment with IT LPS (at either 24 or 120 h), surviving mice were sacrificed by exsanguination under anesthesia. Lungs in situ were cleared of blood by perfusion through the pulmonary artery and then were lavaged through the trachea with saline. The lung was then removed from the thorax for tissue assays. We evaluated the effect of LPS on lung injury by measuring the number of nucleated cells and the protein content in the lung bronchoalveolar lavage fluid (BALf), the lung wet to dry lung weight ratio using the left upper lobe of lung, and thiobarbituric-acid reactive products (TBARS), 8-isoprostanes, and protein carbonyls in the lung homogenate to determine the oxidation of lung tissue lipid and protein components. For studies of mouse mortality, survival plots were constructed using the Kaplan-Meier estimator.
The survival data is plotted with the initial PIP-2 treatment as 0 time; LPS was administered 12 h before PIP-2 (−12 h that is off of the graph in FIG. 7A and FIG. 7B).
Mice were instilled IT with LPS (15 μg/g wt); PIP-2 (2 μg/g body wt) in liposomes was injected (IV) at the times shown in FIG. 7A. Five of the surviving mice were sacrificed at 120 h after LPS; control mice were given liposomes but not LPS. […] Values are mean±SE for N=4 for control and N=5 for LPS+PIP-2.

[5] = test system: C57Bl/6 mice, LPS-mediated lung injury; experiment: Acute lung injury after intratracheal LPS (5 μg/g), lungs evaluated at 24 h; format: in vivo, mouse; details: LPS 5 μg/g IT, sacrifice at 24 hrs

## LHDFRHQIL (Inhibitory peptide.) [PIP-2]
[1]
  ROS-generated fluorescence of lung after LPS: dramatic decrease
[2]; 0 days, no PIP-2 100
  aiPLA2 Activity: 29.7 ± 2.9 nmol/min/mg prot.
[2]; 30 d
  aiPLA2 Activity: 31.1 ± 1.3 nmol/min/mg prot.
[2]; 45 d
  aiPLA2 Activity: 31.8 ± 1.0 nmol/min/mg prot.
[2]; 60 d
  aiPLA2 Activity: 32.8 ± 0.9 nmol/min/mg prot.
[2]; 120 d, no PIP-2 at 120 d 103
  aiPLA2 Activity: 31.9 ± 2.4 nmol/min/mg prot.
[2]; room temp., 4 months of observation
  stability as dry powder: stable
[3]
  inhibition of lung aiPLA2 activity: ~90%
[4]; LPS 15 μg/g IT or IP, PIP-2 2 or 20 μg/g IV, 5 days after LPS
  lungs of PIP-2 treated mice that survive high dose LPS: normal lungs
[4]; LPS 15 μg/g IT, PIP-2 2 μg/g IV in liposomes 5 doses, survivors sacrificed 120 h after LPS, control 0.95
  BALf cells: 0.96 ± 0.40 ×10^4/g body wt.
[4]; LPS 15 μg/g IT, PIP-2 2 μg/g IV, survivors at 120 h after LPS, control 5.59
  Wet/Dry ratio: 5.34 ± 0.03
[4]; LPS 15 μg/g IT, PIP-2 2 μg/g IV, survivors at 120 h after LPS, control 5.6
  Protein carbonyls: 5.6 ± 0.2 nmol/mg prot
[4]; LPS 15 μg/g IT, PIP-2 2 μg/g IV, survivors at 120 h after LPS, control 34
  8-Isoprostanes: 34 ± 3 pmol/mg prot
[4]; LPS 15 μg/g IT, PIP-2 2 μg/g IV, survivors at 120 h after LPS, control 75
  BALf protein: 78 ± 2.2 μg/g wt
[4]; LPS 15 μg/g IT, PIP-2 2 μg/g IV, survivors at 120 h after LPS, control 76
  TBARS: 77 ± 1 pmol/mg prot
[4]; LPS 15 μg/g IT, PIP-2 2 μg/g IV at 12, 24, 48, 72, 96 h after LPS, at 36 h after start of treatment, no further mortality, placebo 100% by 48 h
  mortality: 17%
[4]; LPS 15 μg/g IT, PIP-2 2 μg/g IV, at 36 h after start of treatment
  survival: 83%

## LYEIKHQIL (Inhibitory peptide.) [PIP-4]
[5]; PIP-4 2 μg/g IT @0 hrs, LPS alone 166
  protein: 77 ± 3 μg protein/g wt
[5]; PIP-4 2 μg/g IT @0 hrs, LPS alone 374
  TBARS: 78 ± 4 pmol/mg prot.
[5]; PIP-4 2 μg/g IV @12 hr
  TBARS: 84 ± 2 pmol/mg prot.
  Wet/Dry lung weight ratio: 5.94 ± 0.05
